# Key:
# [1] = system: Malme-3M; test: Growth inhibition of human MALME-3M cells after 48 hrs by sulforhodamine B assay; assay type: functional
# [2] = system: UACC-257; test: Growth inhibition of human UACC257 cells after 48 hrs by sulforhodamine B assay; assay type: functional; details: UACC-257, 48 h
# [3] = system: M14; test: Growth inhibition of human M14 cells after 48 hrs by sulforhodamine B assay; assay type: functional; details: M14, 48 h
# [4] = system: HL-60; test: Growth inhibition of human HL-60(TB) cells after 48 hrs by sulforhodamine B assay; assay type: functional; details: HL-60, 48 h
# [5] = system: SK-MEL-28; test: Growth inhibition of human SK-MEL-28 cells after 48 hrs by sulforhodamine B assay; assay type: functional; details: SK-MEL-28, 48 h
# [6] = Selectivity index, ratio of TC50 for african green monkey (Cercopithecus aethiops) Vero cells to IC50 for chloroquine-resistant Plasmodium falciparum W2; assay type: toxicity, cell-based
# [7] = system: KM12; test: Growth inhibition of human KM12 cells after 48 hrs by sulforhodamine B assay; assay type: functional; details: KM12, 48 h
# [8] = system: MOLT-4; test: Growth inhibition of human MOLT4 cells after 48 hrs by sulforhodamine B assay; assay type: functional; details: MOLT-4, 48 h
# [9] = system: PC-3; test: Growth inhibition of human PC3 cells after 48 hrs by sulforhodamine B assay; assay type: functional; details: PC-3, 48 h
# [10] = system: HCT-15; test: Growth inhibition of human HCT15 cells after 48 hrs by sulforhodamine B assay; assay type: functional; details: HCT-15, 48 h
# [11] = system: Plasmodium falciparum; test: Antimalarial activity after 72 hrs against chloroquine-resistant Plasmodium falciparum W2 infected erythrocytes by LDH assay; assay type: functional, organism-based; details: W2, 72 h
# [12] = system: HOP-92; test: Growth inhibition of human HOP92 cells after 48 hrs by sulforhodamine B assay; assay type: functional; details: HOP-92, 48 h
# [13] = system: A498; test: Growth inhibition of human A498 cells after 48 hrs by sulforhodamine B assay; assay type: functional; details: A498, 48 h
# [14] = system: NCI-H23; test: Growth inhibition of human NCI-H23 cells after 48 hrs by sulforhodamine B assay; assay type: functional; details: NCI-H23, 48 h
# [15] = system: EKVX; test: Growth inhibition of human EKVX cells after 48 hrs by sulforhodamine B assay; assay type: functional
# [16] = system: K562; test: Growth inhibition of human K562 cells after 48 hrs by sulforhodamine B assay; assay type: functional; details: K562, 48 h
# [17] = system: UACC-62; test: Growth inhibition of human UACC62 cells after 48 hrs by sulforhodamine B assay; assay type: functional; details: UACC-62, 48 h
# [18] = system: SW-620; test: Growth inhibition of human SW620 cells after 48 hrs by sulforhodamine B assay; assay type: functional; details: SW-620, 48 h
# [19] = system: U-251; test: Growth inhibition of human U251 cells after 48 hrs by sulforhodamine B assay; assay type: functional; details: U-251, 48 h
# [20] = system: COLO 205; test: Growth inhibition of human COLO205 cells after 48 hrs by sulforhodamine B assay; assay type: functional; details: COLO 205, 48 h
# [21] = system: CAKI-1; test: Growth inhibition of human Caki1 cells after 48 hrs by sulforhodamine B assay; assay type: functional; details: CAKI-1, 48 h
# [22] = system: SK-MEL-2; test: Growth inhibition of human SK-MEL-2 cells after 48 hrs by sulforhodamine B assay; assay type: functional; details: SK-MEL-2, 48 h
# [23] = system: MCF7; test: Growth inhibition of human MCF7 cells after 48 hrs by sulforhodamine B assay; assay type: functional; details: MCF7, 48 h
# [24] = system: NCI-H322M; test: Growth inhibition of human NCI-H322M cells after 48 hrs by sulforhodamine B assay; assay type: functional
# [25] = system: DU-145; test: Growth inhibition of human DU145 cells after 48 hrs by sulforhodamine B assay; assay type: functional; details: DU-145, 48 h
# [26] = Growth inhibition of human Hs 578T cells after 48 hrs by sulforhodamine B assay; assay type: functional
# [27] = system: MDA-MB-231; test: Growth inhibition of human MDA-MB-231 cells after 48 hrs by sulforhodamine B assay; assay type: functional; details: MDA-MB-231, 48 h
# [28] = system: MDA-N; test: Growth inhibition of human MDA-N cells after 48 hrs by sulforhodamine B assay; assay type: functional
# [29] = system: HCT-116; test: Growth inhibition of human HCT116 cells after 48 hrs by sulforhodamine B assay; assay type: functional; details: HCT-116, 48 h
# [30] = system: SN12C; test: Growth inhibition of human SN12C cells after 48 hrs by sulforhodamine B assay; assay type: functional
# [31] = Selectivity index, ratio of TC50 for african green monkey (Cercopithecus aethiops) Vero cells to IC50 for chloroquine-sensitive Plasmodium falciparum D6; assay type: toxicity, cell-based
# [32] = system: CCRF-CEM; test: Growth inhibition of human CCRF-CEM cells after 48 hrs by sulforhodamine B assay; assay type: functional
# [33] = system: IGROV-1; test: Growth inhibition of human IGROV1 cells after 48 hrs by sulforhodamine B assay; assay type: functional; details: IGROV-1, 48 h
# [34] = system: A549; test: Growth inhibition of human A549 cells after 48 hrs by sulforhodamine B assay; assay type: functional; details: A549, 48 h
# [35] = system: OVCAR-3; test: Growth inhibition of human OVCAR-3 cells after 48 hrs by sulforhodamine B assay; assay type: functional; details: OVCAR-3, 48 h
# [36] = system: UO-31; test: Growth inhibition of human UO31 cells after 48 hrs by sulforhodamine B assay; assay type: functional; details: UO-31, 48 h
# [37] = system: SNB-19; test: Growth inhibition of human SNB19 cells after 48 hrs by sulforhodamine B assay; assay type: functional; details: SNB-19, 48 h
# [38] = system: HOP-62; test: Growth inhibition of human HOP62 cells after 48 hrs by sulforhodamine B assay; assay type: functional; details: HOP-62, 48 h
# [39] = system: HCC 2998; test: Growth inhibition of human HCC2998 cells after 48 hrs by sulforhodamine B assay; assay type: functional; details: HCC 2998, 48 h
# [40] = system: MDA-MB-435; test: Growth inhibition of human MDA-MB-435 cells after 48 hrs by sulforhodamine B assay; assay type: functional; details: MDA-MB-435, 48 h
# [41] = system: TK-10; test: Growth inhibition of human TK10 cells after 48 hrs by sulforhodamine B assay; assay type: functional; details: TK-10, 48 h
# [42] = system: NCI-H522; test: Growth inhibition of human NCI-H522 cells after 48 hrs by sulforhodamine B assay; assay type: functional; details: NCI-H522, 48 h
# [43] = system: RXF 393; test: Growth inhibition of human RXF393 cells after 48 hrs by sulforhodamine B assay; assay type: functional; details: RXF 393, 48 h
# [44] = system: OVCAR-8; test: Growth inhibition of human OVCAR8 cells after 48 hrs by sulforhodamine B assay; assay type: functional; details: OVCAR-8, 48 h
# [45] = system: 786-0; test: Growth inhibition of human 786-0 cells after 48 hrs by sulforhodamine B assay; assay type: functional; details: 786-0, 48 h
# [46] = system: T47D; test: Growth inhibition of human T47D cells after 48 hrs by sulforhodamine B assay; assay type: functional
# [47] = system: SR; test: Growth inhibition of human SR cells after 48 hrs by sulforhodamine B assay; assay type: functional
# [48] = system: OVCAR-4; test: Growth inhibition of human OVCAR4 cells after 48 hrs by sulforhodamine B assay; assay type: functional; details: OVCAR-4, 48 h
# [49] = system: Plasmodium falciparum; test: Antimalarial activity after 72 hrs against chloroquine-sensitive Plasmodium falciparum D6 infected in erythrocytes by LDH assay; assay type: functional, organism-based; details: D6, 72 h
# [50] = system: SK-OV-3; test: Growth inhibition of human SKOV3 cells after 48 hrs by sulforhodamine B assay; assay type: functional; details: SK-OV-3, 48 h
# [51] = system: NCI/ADR-RES; test: Growth inhibition of human NCI/ADR-RES cells after 48 hrs by sulforhodamine B assay; assay type: functional
# [52] = Cytotoxicity against african green monkey Vero cells after 48 hrs by neutral red assay; assay type: cell-based; details: chlorocebus sabaeus, read-out: TC50
# [53] = system: ACHN; test: Growth inhibition of human ACHN cells after 48 hrs by sulforhodamine B assay; assay type: functional
# [54] = system: SK-MEL-5; test: Growth inhibition of human SK-MEL-5 cells after 48 hrs by sulforhodamine B assay; assay type: functional; details: SK-MEL-5, 48 h
# [55] = system: OVCAR-5; test: Growth inhibition of human OVCAR5 cells after 48 hrs by sulforhodamine B assay; assay type: functional; details: OVCAR-5, 48 h
# [56] = system: SF-539; test: Growth inhibition of human SF539 cells after 48 hrs by sulforhodamine B assay; assay type: functional; details: SF-539, 48 h
# [57] = system: SF-295; test: Growth inhibition of human SF295 cells after 48 hrs by sulforhodamine B assay; assay type: functional; details: SF-295, 48 h
# [58] = system: SF-268; test: Growth inhibition of human SF268 cells after 48 hrs by sulforhodamine B assay; assay type: functional; details: SF-268, 48 h
# [59] = system: NCI-H460; test: Growth inhibition of human NCI-H460 cells after 48 hrs by sulforhodamine B assay; assay type: functional; details: NCI-H460, 48 h
# [60] = system: HT-29; test: Growth inhibition of human HT-29 cells after 48 hrs by sulforhodamine B assay; assay type: functional; details: HT-29, 48 h
# [61] = system: BT-549; test: Growth inhibition of human BT549 cells after 48 hrs by sulforhodamine B assay; assay type: functional; details: BT-549, 48 h
# [62] = Growth inhibition of human […] cells after 48 hrs by sulforhodamine B assay; assay type: functional
# [63] = system: HUVEC; test: Antiangiogenic activity against HUVEC assessed as growth inhibition by NCI antiangiogenesis assay; assay type: functional, cell-based; details: Homo sapiens
# [64] = system: HUVEC; test: Antiangiogenic activity against HUVEC assessed as inhibition of capillary-like structure formation by NCI antiangiogenesis assay; assay type: functional, cell-based; details: Homo sapiens
# [65] = system: HUVEC; test: Antiangiogenic activity against HUVEC assessed as inhibition of VEGF-induced cell migration by NCI antiangiogenesis assay; assay type: functional, cell-based; details: Homo sapiens
smiles,measurement,setting,value
C=C1[C@@H](OCCCO[C@H]2O[C@@H]3O[C@@]4(C)CC[C@H]5[C@H](C)CC[C@@H](C2=C)[C@@]35OO4)O[C@@H]2O[C@@]3(C)CC[C@H]4[C@H](C)CC[C@@H]1[C@@]24OO3,GI50,[1],7.28 µM
same,GI50,[2],0.479 µM
same,GI50,[3],0.205 µM
same,GI50,[4],0.098 µM
same,GI50,[5],6.07 µM
same,selectivity ratio,[6],> 159
same,GI50,[7],0.094 µM
same,GI50,[8],0.121 µM
same,GI50,[9],0.063 µM
same,GI50,[10],0.012 µM
same,IC50,[11],5.1 µM
same,GI50,[12],0.745 µM
same,GI50,[13],> 50 µM
same,GI50,[14],1.07 µM
same,GI50,[15],0.476 µM
same,GI50,[16],0.05 µM
same,GI50,[17],7.2 µM
same,GI50,[18],0.062 µM
same,GI50,[19],0.288 µM
same,GI50,[20],0.122 µM
same,GI50,[21],1.77 µM
same,GI50,[22],3.14 µM
same,GI50,[23],0.15 µM
same,GI50,[24],11.2 µM
same,GI50,[25],7.59 µM
same,GI50,[26],0.074 µM
same,GI50,[27],13.1 µM
same,GI50,[28],0.518 µM
same,GI50,[29],0.027 µM
same,GI50,[30],7.3 µM
same,selectivity ratio,[31],> 43
same,GI50,[32],0.097 µM
same,GI50,[33],0.622 µM
same,GI50,[34],5.33 µM
same,GI50,[35],0.107 µM
same,GI50,[36],0.181 µM
same,GI50,[37],11.1 µM
same,GI50,[38],6.88 µM
same,GI50,[39],5.98 µM
same,GI50,[40],0.443 µM
same,GI50,[41],0.218 µM
same,GI50,[42],0.401 µM
same,GI50,[43],6.46 µM
same,GI50,[44],0.372 µM
same,GI50,[45],0.346 µM
same,GI50,[46],0.014 µM
same,GI50,[47],0.028 µM
same,GI50,[48],0.073 µM
same,IC50,[49],18.6 µM
same,GI50,[50],10.9 µM
same,GI50,[51],0.533 µM
same,CC50 at 48 h,[52],> 806 µM
same,GI50,[53],6.38 µM
same,GI50,[54],0.496 µM
same,GI50,[55],5.04 µM
same,GI50,[56],5.34 µM
same,GI50,[57],7.65 µM
same,GI50,[58],6.29 µM
same,GI50,[59],5.44 µM
same,GI50,[60],0.043 µM
same,GI50,[61],7.52 µM
same,GI50,[62],0.013 µM
CC(=O)O[C@H]1C(=O)[C@@]2(C)[C@H]([C@H](OC(=O)c3ccccc3)[C@]3(O)C[C@H](OC(=O)[C@H](O)[C@@H](NC(=O)c4ccccc4)c4ccccc4)C(C)=C1C3(C)C)[C@]1(OC(C)=O)CO[C@@H]1C[C@@H]2O [PACLITAXEL],IC50,[63],1.65 µM
same,IC50,[64],0.05 µM
same,IC50,[65],0.1 µM

# Source: ChEMBL document CHEMBL1140860, “Synthesis and evaluation of dihydroartemisinin and dihydroartemisitene acetal dimers showing anticancer and antiprotozoal activity” (Bioorg Med Chem, 2009)
